We go through 2 compounds from paper PMC9856672, “SGC-CAMKK2-1: A Chemical Probe for CAMKK2” (Cells, 2023).

For test [1], the target named is T1, ABL1(T315I)-nonphosphorylated (Homo sapiens, UniProt P00519, T315I).
T1 construct: purchased Eurofins DiscoverX KINOMEscan
Nature of the test: KINOMEscan 1 μM, ABL1(T315I)-nonphosphorylated. In kind it is binding. The following applies: 1000 nM; Entrez ABL1; read-out: Percent Control. From the text:
(§1) Supplement cells-12-00287-s001.zip/File S2. KinomeScan data for the CAMKK2 probe and negative control.xlsx, sheet "SGC-CAMKK2-1" | column: Percent Control

Test [2] has as its target T2, PRKD1 (Homo sapiens, UniProt Q15139).
T2 construct: purchased Eurofins DiscoverX KINOMEscan
Description: DiscoverX KINOMEscan binding assay at 1 μM, PRKD1. Particulars: Compound Concentration 1000 nM, read-out: Percent Control.
Excerpt: as §1

The next test concerns the target T3, RET(M918T) (Homo sapiens, UniProt P07949, M918T).
T3 construct: purchased Eurofins DiscoverX KINOMEscan
Description: DiscoverX KINOMEscan binding assay at 1 μM, RET(M918T). Particulars: Compound Concentration 1000 nM, read-out: Percent Control.
Excerpt: as §1

Test [3] deals with T4, JAK3(JH1domain-catalytic) (Homo sapiens, UniProt P52333).
T4 construct: JAK3(JH1domain-catalytic); purchased Eurofins DiscoverX KINOMEscan
Nature of the test: KINOMEscan 1 μM, JAK3(JH1domain-catalytic). It is filed as binding. The following applies: 1000 nM; Entrez JAK3; read-out: Percent Control.
Excerpt: as §1

In a further test the target is T5, AAK1 (Homo sapiens, UniProt Q2M2I8).
T5 construct: purchased Eurofins DiscoverX KINOMEscan
Nature of the test: KINOMEscan 1 μM, AAK1. In kind it is binding. The following applies: 1000 nM; Entrez AAK1; read-out: Percent Control.
Excerpt: as §1

For another test, the target named is T6, PRKX (Homo sapiens, UniProt P51817).
T6 construct: purchased Eurofins DiscoverX KINOMEscan
Nature of the test: KINOMEscan 1 μM, PRKX. In kind it is binding. Particulars: 1000 nM; Entrez PRKX; read-out: Percent Control.
Excerpt: as §1

Another test deals with T7, EPHB4 (Homo sapiens, UniProt P54760).
T7 construct: purchased Eurofins DiscoverX KINOMEscan
Description: KINOMEscan 1 μM, EPHB4. In kind it is binding. Particulars: 1000 nM; Entrez EPHB4; read-out: Percent Control.
Excerpt: as §1

The next test concerns the target T8, SBK1 (Homo sapiens, UniProt Q52WX2).
T8 construct: purchased Eurofins DiscoverX KINOMEscan
Nature of the test: DiscoverX KINOMEscan binding assay at 1 μM, SBK1. Particulars: Compound Concentration 1000 nM, read-out: Percent Control.
Excerpt: as §1

For a further test, the target named is T9, ACVR1B (Homo sapiens, UniProt P36896).
T9 construct: purchased Eurofins DiscoverX KINOMEscan
Nature of the test: KINOMEscan 1 μM, ACVR1B. It is filed as binding. The following applies: 1000 nM; Entrez ACVR1B; read-out: Percent Control.
Excerpt: as §1

A further test deals with T10, IKK-beta (Homo sapiens, UniProt O14920).
T10 construct: purchased Eurofins DiscoverX KINOMEscan
Nature of the test: KINOMEscan 1 μM, IKK-beta. In kind it is binding. Particulars: 1000 nM; Entrez IKBKB; read-out: Percent Control.
Excerpt: as §1

In the next test the target is T11, MERTK (Homo sapiens, UniProt Q12866).
T11 construct: purchased Eurofins DiscoverX KINOMEscan
Description: KINOMEscan 1 μM, MERTK. It is filed as binding. The following applies: 1000 nM; Entrez MERTK; read-out: Percent Control.
Excerpt: as §1

Another test has as its target T12, ACVR1 (Homo sapiens, UniProt Q04771).
T12 construct: purchased Eurofins DiscoverX KINOMEscan
Description: KINOMEscan 1 μM, ACVR1. It is filed as binding. The following applies: 1000 nM; Entrez ACVR1; read-out: Percent Control.
Excerpt: as §1

In test [4] the target is T13, SRMS (Homo sapiens, UniProt Q9H3Y6).
T13 construct: purchased Eurofins DiscoverX KINOMEscan
Nature of the test: DiscoverX KINOMEscan binding assay at 1 μM, SRMS. The following applies: Compound Concentration 1000 nM, read-out: Percent Control.
Excerpt: as §1

A further test deals with T14, SNRK (Homo sapiens, UniProt Q9NRH2).
T14 construct: purchased Eurofins DiscoverX KINOMEscan
Nature of the test: KINOMEscan 1 μM, SNRK. It is filed as binding. The following applies: 1000 nM; Entrez SNRK; read-out: Percent Control.
Excerpt: as §1

The next test deals with T15, CDKL1 (Homo sapiens, UniProt Q00532).
T15 construct: purchased Eurofins DiscoverX KINOMEscan
Nature of the test: KINOMEscan 1 μM, CDKL1. It is filed as binding. The following applies: 1000 nM; Entrez CDKL1; read-out: Percent Control.
Excerpt: as §1

In a further test the target is T16, MAP4K2 (Homo sapiens, UniProt Q12851).
T16 construct: purchased Eurofins DiscoverX KINOMEscan
Nature of the test: KINOMEscan 1 μM, MAP4K2. It is filed as binding. The following applies: 1000 nM; Entrez MAP4K2; read-out: Percent Control.
Excerpt: as §1

The target in another test is T17, MEK3 (Homo sapiens, UniProt P46734).
T17 construct: purchased Eurofins DiscoverX KINOMEscan
Nature of the test: KINOMEscan 1 μM, MEK3. It is filed as binding. Particulars: 1000 nM; Entrez MAP2K3; read-out: Percent Control.
Excerpt: as §1

Another test addresses T18, AURKA (Homo sapiens, UniProt O14965).
T18 construct: purchased Eurofins DiscoverX KINOMEscan
Nature of the test: KINOMEscan 1 μM, AURKA. In kind it is binding. Particulars: 1000 nM; Entrez AURKA; read-out: Percent Control.
Excerpt: as §1

The target in a further test is T19, EPHA6 (Homo sapiens, UniProt Q9UF33).
T19 construct: purchased Eurofins DiscoverX KINOMEscan
Description: KINOMEscan 1 μM, EPHA6. In kind it is binding. The following applies: 1000 nM; Entrez EPHA6; read-out: Percent Control.
Excerpt: as §1

A further test concerns the target T20, PIK3CA(E542K) (Homo sapiens, UniProt P42336, E542K).
T20 construct: purchased Eurofins DiscoverX KINOMEscan
Nature of the test: DiscoverX KINOMEscan binding assay at 1 μM, PIK3CA(E542K). The following applies: Compound Concentration 1000 nM, read-out: Percent Control.
Excerpt: as §1

The target in the next test is T21, ULK3 (Homo sapiens, UniProt Q6PHR2).
T21 construct: purchased Eurofins DiscoverX KINOMEscan
Nature of the test: DiscoverX KINOMEscan binding assay at 1 μM, ULK3. Particulars: Compound Concentration 1000 nM, read-out: Percent Control.
Excerpt: as §1

The target in another test is T22, DMPK2 (Homo sapiens, UniProt Q6DT37).
T22 construct: purchased Eurofins DiscoverX KINOMEscan
Description: KINOMEscan 1 μM, DMPK2. It is filed as binding. Particulars: 1000 nM; Entrez CDC42BPG; read-out: Percent Control.
Excerpt: as §1

A further test addresses T23, MKNK2 (Homo sapiens, UniProt Q9HBH9).
T23 construct: purchased Eurofins DiscoverX KINOMEscan
Nature of the test: KINOMEscan 1 μM, MKNK2. It is filed as binding. The following applies: 1000 nM; Entrez MKNK2; read-out: Percent Control.
Excerpt: as §1

The next test concerns the target T24, MKNK1 (Homo sapiens, UniProt Q9BUB5).
T24 construct: purchased Eurofins DiscoverX KINOMEscan
Description: KINOMEscan at 1 μM, MKNK1. It is filed as binding. The following applies: 1000 nM, read-out: Percent Control. From the text: (§2) Supplement cells-12-00287-s001.zip/File S2. KinomeScan data for the CAMKK2 probe and negative control.xlsx, sheet "SGC-CAMKK2-1N" | column: Percent Control

The target of the next test is T25, SGK (Homo sapiens, UniProt O00141).
T25 construct: purchased Eurofins DiscoverX KINOMEscan
Description: KINOMEscan at 1 μM, SGK. Particulars: 1000 nM, read-out: Percent Control. It is filed as binding.
Excerpt: as §2

The target of test [5] is T13, SRMS. Nature of the test: KINOMEscan at 1 μM, SRMS. Particulars: 1000 nM, read-out: Percent Control. In kind it is binding.
Excerpt: as §2

The target of another test is T26, PFTAIRE2 (Homo sapiens, UniProt Q96Q40).
T26 construct: purchased Eurofins DiscoverX KINOMEscan
Description: KINOMEscan at 1 μM, PFTAIRE2. In kind it is binding. The following applies: 1000 nM, read-out: Percent Control.
Excerpt: as §2

Test [6] deals with T2, PRKD1. Description: KINOMEscan binding assay at 1 μM, PRKD1. Particulars: Compound Concentration 1000 nM; read-out: Percent Control.
Excerpt: as §2

Another test concerns the target T27, YSK4 (Homo sapiens, UniProt Q56UN5).
T27 construct: purchased Eurofins DiscoverX KINOMEscan
Nature of the test: KINOMEscan at 1 μM, YSK4. In kind it is binding. Particulars: 1000 nM, read-out: Percent Control.
Excerpt: as §2

The next test addresses T28, TAK1 (Homo sapiens, UniProt O43318).
T28 construct: purchased Eurofins DiscoverX KINOMEscan
Nature of the test: KINOMEscan at 1 μM, TAK1. The following applies: 1000 nM, read-out: Percent Control. It is filed as binding.
Excerpt: as §2

In another test the target is T29, NDR2 (Homo sapiens, UniProt Q9Y2H1).
T29 construct: purchased Eurofins DiscoverX KINOMEscan
Nature of the test: KINOMEscan at 1 μM, NDR2. In kind it is binding. Particulars: 1000 nM, read-out: Percent Control.
Excerpt: as §2

A further test addresses T30, MAPKAPK5 (Homo sapiens, UniProt Q8IW41).
T30 construct: purchased Eurofins DiscoverX KINOMEscan
Description: KINOMEscan binding assay at 1 μM, MAPKAPK5. Particulars: Compound Concentration 1000 nM; read-out: Percent Control.
Excerpt: as §2

The target in the next test is T31, MARK2 (Homo sapiens, UniProt Q7KZI7).
T31 construct: purchased Eurofins DiscoverX KINOMEscan
Description: KINOMEscan at 1 μM, MARK2. It is filed as binding. The following applies: 1000 nM, read-out: Percent Control.
Excerpt: as §2

T2 sequence (Q15139 whole entry): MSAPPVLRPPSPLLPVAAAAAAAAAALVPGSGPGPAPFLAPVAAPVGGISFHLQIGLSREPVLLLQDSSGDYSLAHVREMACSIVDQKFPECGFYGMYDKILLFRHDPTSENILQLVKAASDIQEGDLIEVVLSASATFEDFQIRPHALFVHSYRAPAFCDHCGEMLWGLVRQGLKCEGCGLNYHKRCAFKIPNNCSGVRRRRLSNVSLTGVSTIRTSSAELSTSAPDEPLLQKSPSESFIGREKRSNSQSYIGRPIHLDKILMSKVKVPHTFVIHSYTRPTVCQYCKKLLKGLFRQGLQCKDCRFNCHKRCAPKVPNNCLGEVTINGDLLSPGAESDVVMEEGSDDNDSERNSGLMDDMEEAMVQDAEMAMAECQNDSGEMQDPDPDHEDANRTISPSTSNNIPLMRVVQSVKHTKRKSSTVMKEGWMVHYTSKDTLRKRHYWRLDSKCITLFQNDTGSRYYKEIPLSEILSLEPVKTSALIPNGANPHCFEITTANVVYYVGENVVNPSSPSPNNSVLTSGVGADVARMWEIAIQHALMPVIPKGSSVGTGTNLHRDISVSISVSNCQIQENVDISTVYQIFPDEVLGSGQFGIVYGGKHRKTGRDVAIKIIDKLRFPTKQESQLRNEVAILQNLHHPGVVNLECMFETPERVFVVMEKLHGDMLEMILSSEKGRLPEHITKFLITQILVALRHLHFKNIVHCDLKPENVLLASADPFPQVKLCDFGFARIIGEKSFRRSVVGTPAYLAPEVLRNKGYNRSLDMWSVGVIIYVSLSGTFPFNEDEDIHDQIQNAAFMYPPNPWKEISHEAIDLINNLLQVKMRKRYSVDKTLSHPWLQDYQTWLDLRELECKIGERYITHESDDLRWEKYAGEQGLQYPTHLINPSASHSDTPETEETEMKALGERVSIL
T13 sequence (Q9H3Y6 whole entry): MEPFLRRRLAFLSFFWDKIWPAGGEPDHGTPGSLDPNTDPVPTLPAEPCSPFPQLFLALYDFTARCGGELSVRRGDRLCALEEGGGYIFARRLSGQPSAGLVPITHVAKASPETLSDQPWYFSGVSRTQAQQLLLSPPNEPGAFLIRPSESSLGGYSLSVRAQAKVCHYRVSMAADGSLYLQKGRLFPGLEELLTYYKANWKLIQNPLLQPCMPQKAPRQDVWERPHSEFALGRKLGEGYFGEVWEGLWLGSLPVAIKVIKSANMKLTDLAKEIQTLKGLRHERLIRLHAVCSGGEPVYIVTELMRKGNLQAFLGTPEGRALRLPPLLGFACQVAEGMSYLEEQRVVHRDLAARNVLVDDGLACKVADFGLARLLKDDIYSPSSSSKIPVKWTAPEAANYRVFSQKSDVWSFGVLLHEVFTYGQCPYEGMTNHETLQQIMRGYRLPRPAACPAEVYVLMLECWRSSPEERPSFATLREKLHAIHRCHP
T11 sequence (Q12866 21-999): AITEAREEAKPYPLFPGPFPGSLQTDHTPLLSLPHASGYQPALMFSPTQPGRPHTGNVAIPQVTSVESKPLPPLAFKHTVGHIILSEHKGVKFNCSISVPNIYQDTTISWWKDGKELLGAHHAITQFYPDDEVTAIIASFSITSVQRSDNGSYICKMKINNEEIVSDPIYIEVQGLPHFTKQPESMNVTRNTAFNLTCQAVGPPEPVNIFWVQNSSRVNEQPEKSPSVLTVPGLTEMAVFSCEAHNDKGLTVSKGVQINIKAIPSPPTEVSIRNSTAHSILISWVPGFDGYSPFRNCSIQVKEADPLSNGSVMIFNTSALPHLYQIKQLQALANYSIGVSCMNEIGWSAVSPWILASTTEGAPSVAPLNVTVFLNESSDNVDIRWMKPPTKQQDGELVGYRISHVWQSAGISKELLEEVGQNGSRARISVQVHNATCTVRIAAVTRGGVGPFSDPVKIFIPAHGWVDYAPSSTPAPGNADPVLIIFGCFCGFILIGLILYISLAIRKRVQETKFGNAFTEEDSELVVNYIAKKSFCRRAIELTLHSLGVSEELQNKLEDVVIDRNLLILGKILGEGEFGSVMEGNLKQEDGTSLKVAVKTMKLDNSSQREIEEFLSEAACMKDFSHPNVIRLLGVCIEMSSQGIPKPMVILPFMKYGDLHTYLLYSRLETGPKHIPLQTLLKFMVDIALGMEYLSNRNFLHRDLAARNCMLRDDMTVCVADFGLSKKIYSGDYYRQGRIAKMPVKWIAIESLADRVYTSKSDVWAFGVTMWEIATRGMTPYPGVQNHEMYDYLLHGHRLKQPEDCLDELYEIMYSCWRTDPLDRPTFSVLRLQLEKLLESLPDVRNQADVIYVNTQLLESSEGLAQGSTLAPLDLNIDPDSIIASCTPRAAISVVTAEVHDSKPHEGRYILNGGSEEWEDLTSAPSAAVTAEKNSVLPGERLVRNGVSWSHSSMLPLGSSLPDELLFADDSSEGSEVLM
T9 sequence (P36896 24-505): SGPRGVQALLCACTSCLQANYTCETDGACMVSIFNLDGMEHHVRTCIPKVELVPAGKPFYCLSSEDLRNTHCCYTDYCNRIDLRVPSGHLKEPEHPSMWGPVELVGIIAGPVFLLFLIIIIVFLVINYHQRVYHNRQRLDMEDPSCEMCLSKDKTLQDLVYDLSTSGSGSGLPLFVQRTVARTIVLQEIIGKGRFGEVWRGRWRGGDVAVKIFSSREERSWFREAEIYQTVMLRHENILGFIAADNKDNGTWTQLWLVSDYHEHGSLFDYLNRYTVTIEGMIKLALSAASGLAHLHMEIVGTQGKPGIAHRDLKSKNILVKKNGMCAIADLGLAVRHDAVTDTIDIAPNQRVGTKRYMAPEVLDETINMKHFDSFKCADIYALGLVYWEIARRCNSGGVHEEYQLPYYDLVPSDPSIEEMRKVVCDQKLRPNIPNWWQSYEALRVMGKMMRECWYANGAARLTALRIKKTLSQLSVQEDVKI
T27 sequence (Q56UN5 whole entry): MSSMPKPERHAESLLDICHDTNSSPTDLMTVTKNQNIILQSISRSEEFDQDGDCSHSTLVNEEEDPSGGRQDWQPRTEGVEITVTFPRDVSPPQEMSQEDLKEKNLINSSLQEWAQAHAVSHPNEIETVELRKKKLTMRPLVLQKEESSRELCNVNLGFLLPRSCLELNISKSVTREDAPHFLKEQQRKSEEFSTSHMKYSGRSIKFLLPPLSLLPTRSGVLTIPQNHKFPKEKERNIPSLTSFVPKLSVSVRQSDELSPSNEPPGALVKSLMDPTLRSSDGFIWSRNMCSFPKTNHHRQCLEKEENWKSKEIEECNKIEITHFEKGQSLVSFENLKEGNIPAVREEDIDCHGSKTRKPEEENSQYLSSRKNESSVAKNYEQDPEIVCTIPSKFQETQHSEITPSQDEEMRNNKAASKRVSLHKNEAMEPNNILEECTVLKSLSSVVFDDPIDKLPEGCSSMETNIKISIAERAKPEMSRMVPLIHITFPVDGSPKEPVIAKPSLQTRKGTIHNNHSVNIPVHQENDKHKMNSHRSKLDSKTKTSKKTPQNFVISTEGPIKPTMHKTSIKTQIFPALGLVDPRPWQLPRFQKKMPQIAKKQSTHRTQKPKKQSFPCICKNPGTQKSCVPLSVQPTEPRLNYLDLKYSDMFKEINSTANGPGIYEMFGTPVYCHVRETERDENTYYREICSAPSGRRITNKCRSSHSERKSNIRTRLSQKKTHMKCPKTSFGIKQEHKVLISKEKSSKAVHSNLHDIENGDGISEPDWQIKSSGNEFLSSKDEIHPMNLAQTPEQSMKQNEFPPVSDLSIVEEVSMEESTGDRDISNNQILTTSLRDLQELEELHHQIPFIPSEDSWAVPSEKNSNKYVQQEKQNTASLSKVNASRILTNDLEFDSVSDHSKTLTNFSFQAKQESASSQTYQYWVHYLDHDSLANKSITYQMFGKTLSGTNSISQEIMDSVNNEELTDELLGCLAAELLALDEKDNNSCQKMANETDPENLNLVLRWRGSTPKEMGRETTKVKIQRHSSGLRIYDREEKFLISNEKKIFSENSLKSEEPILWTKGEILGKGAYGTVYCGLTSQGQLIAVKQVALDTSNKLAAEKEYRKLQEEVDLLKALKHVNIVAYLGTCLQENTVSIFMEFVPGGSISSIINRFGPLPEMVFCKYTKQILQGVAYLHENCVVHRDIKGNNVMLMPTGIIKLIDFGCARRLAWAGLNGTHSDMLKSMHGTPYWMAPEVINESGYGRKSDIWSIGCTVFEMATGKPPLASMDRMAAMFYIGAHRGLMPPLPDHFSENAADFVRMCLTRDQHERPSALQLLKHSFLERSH
T8 sequence (Q52WX2 whole entry): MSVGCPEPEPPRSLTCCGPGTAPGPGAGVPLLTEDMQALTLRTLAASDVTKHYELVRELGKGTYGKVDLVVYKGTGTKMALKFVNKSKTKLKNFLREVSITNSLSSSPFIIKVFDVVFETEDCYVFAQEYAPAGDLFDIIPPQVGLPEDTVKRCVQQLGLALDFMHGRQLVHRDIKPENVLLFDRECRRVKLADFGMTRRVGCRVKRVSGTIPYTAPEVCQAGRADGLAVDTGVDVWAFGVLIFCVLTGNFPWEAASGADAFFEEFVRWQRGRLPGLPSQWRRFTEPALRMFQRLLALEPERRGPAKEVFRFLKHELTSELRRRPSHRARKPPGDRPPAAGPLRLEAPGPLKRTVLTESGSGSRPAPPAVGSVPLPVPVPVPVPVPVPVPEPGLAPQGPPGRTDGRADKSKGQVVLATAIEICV
T6 sequence (P51817 whole entry): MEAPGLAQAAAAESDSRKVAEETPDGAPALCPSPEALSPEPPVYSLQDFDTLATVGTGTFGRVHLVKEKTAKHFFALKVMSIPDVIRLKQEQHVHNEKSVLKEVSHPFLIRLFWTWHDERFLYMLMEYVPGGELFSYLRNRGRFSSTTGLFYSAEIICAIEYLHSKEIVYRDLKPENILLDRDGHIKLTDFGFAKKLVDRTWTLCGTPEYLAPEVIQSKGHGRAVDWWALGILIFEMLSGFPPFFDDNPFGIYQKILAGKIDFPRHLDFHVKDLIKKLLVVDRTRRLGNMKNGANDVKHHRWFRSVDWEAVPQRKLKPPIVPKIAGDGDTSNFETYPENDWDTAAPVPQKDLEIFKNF

As for `Cc1cccc(-c2cnc3occ(-c4ccc(C(=O)O)c(C5CCCC5)c4)c3c2)c1` [SGC-CAMKK2-1 (YL-36)], the remaining binding at 1 µM was 100% in test [1]; 100% at PRKD1 [2]; 100% on RET(M918T); 100% in test [3]; 98% on AAK1; 79% on PRKX. Also, the remaining binding at 1 µM is 98% at EPHB4; 100% on SBK1; 100% at ACVR1B; 100% on IKK-beta; 100% on MERTK; 83% at ACVR1. Besides, the remaining binding at 1 µM at SRMS [4] came to 100%; on SNRK, 94%; at CDKL1, 100%; at MAP4K2, 100%; at MEK3 it was 91%; on AURKA, 100%. Besides, the remaining binding at 1 µM on EPHA6 was 100%; on PIK3CA(E542K), 100%; at ULK3, 100%; on DMPK2, 97%; at MKNK2, 100%.

As for `O=C(O)c1ccc(-c2coc3ncc(-c4ccccc4)cc23)cc1Cl` [SGC-CAMKK2-1N (UNC-YL-83)], the remaining binding at 1 µM at MKNK1 came out at 49%; on SGK it was 79%; at SRMS [5], 79%; on PFTAIRE2 it was 76%; at PRKD1 [6] it was 100%; on YSK4, 77%. Also, the remaining binding at 1 µM on TAK1 amounted to 62%; at NDR2 it was 76%; at MAPKAPK5, 100%; at MARK2, 70%.
